Test results taken from PubChem BioAssay (NCI).
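All cell lines were grown in 96-well plates and treated with compound for 48 hours. Definition used: TGI = concentration required for complete inhibition of growth.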

Columns and labels:
Assay in all cases: NCI anticancer screen, dose series, 48 h
786-0 renal = test system: 786-0 renal
CCRF-CEM leukemia = test system: CCRF-CEM leukemia
NCI-H522 lung = test system: NCI-H522 lung
NCI/ADR-RES ovarian = test system: NCI/ADR-RES ovarian
OVCAR-8 ovarian = test system: OVCAR-8 ovarian
SF-268 CNS = test system: SF-268 CNS
SF-295 CNS = test system: SF-295 CNS
SF-539 CNS = test system: SF-539 CNS
TK-10 renal = test system: TK-10 renal
UACC-257 melanoma = test system: UACC-257 melanoma

## Cc1ccc(S(=O)(=O)NC(=O)Nc2ccc(C(=O)O)cc2)cc1
786-0 renal
  TGI: > 100 µM
CCRF-CEM leukemia
  TGI: > 100 µM
NCI-H522 lung
  TGI: > 100 µM
NCI/ADR-RES ovarian
  TGI: > 100 µM
OVCAR-8 ovarian
  TGI: > 100 µM
SF-268 CNS
  TGI: > 100 µM
SF-295 CNS
  TGI: > 100 µM
SF-539 CNS
  TGI: > 100 µM
TK-10 renal
  TGI: > 100 µM
UACC-257 melanoma
  TGI: > 100 µM

## O=c1[nH]ncc2[nH]c3c(c12)CCc1ccccc1-3
786-0 renal
  TGI: > 100 µM
CCRF-CEM leukemia
  TGI: > 100 µM
NCI-H522 lung
  TGI: 57 µM
NCI/ADR-RES ovarian
  TGI: > 100 µM
OVCAR-8 ovarian
  TGI: > 100 µM
SF-268 CNS
  TGI: > 100 µM
SF-295 CNS
  TGI: > 100 µM
SF-539 CNS
  TGI: 42.1 µM
TK-10 renal
  TGI: 81.2 µM
UACC-257 melanoma
  TGI: > 100 µM

## CC1=NC(=N)N=C(C)C1N=Nc1ccc2nc(C)[nH]c2c1 (stereo not drawn)
786-0 renal
  TGI: > 100 µM
CCRF-CEM leukemia
  TGI: > 100 µM
NCI-H522 lung
  TGI: > 100 µM
NCI/ADR-RES ovarian
  TGI: > 100 µM
OVCAR-8 ovarian
  TGI: > 100 µM
SF-268 CNS
  TGI: > 100 µM
SF-295 CNS
  TGI: > 100 µM
SF-539 CNS
  TGI: > 100 µM
TK-10 renal
  TGI: > 100 µM
UACC-257 melanoma
  TGI: > 100 µM

## CC(=O)CCC1(C(=O)OCC(C)C)CCCC1=O (stereo not drawn)
786-0 renal
  TGI: > 100 µM
CCRF-CEM leukemia
  TGI: > 100 µM
NCI-H522 lung
  TGI: > 100 µM
NCI/ADR-RES ovarian
  TGI: > 100 µM
OVCAR-8 ovarian
  TGI: > 100 µM
SF-268 CNS
  TGI: > 100 µM
SF-295 CNS
  TGI: > 100 µM
SF-539 CNS
  TGI: > 100 µM
TK-10 renal
  TGI: > 100 µM
UACC-257 melanoma
  TGI: > 100 µM

## Cc1n[nH]c(=O)n1-n1cccc1
786-0 renal
  TGI: > 100 µM
CCRF-CEM leukemia
  TGI: > 100 µM
NCI-H522 lung
  TGI: > 100 µM
NCI/ADR-RES ovarian
  TGI: > 100 µM
OVCAR-8 ovarian
  TGI: > 100 µM
SF-268 CNS
  TGI: > 100 µM
SF-295 CNS
  TGI: > 100 µM
SF-539 CNS
  TGI: > 100 µM
TK-10 renal
  TGI: > 100 µM
UACC-257 melanoma
  TGI: > 100 µM

## CC(=O)Oc1cc2c(cc1OCC(F)(F)F)[C@H]1CC[C@]3(C)[C@@H](OC(C)=O)CC[C@H]3[C@@H]1CC2=O
786-0 renal
  TGI: > 100 µM
CCRF-CEM leukemia
  TGI: 40.1 µM
NCI-H522 lung
  TGI: > 70 µM
NCI/ADR-RES ovarian
  TGI: 43.6 µM
OVCAR-8 ovarian
  TGI: 57 µM
SF-268 CNS
  TGI: > 77.4 µM
SF-295 CNS
  TGI: 88.3 µM
SF-539 CNS
  TGI: 46.1 µM
TK-10 renal
  TGI: 46.2 µM
UACC-257 melanoma
  TGI: 72.8 µM

## C/C(=N/NC(=S)Nc1ccc(C)cc1)c1ccccn1
786-0 renal
  TGI: 12.7 µM
CCRF-CEM leukemia
  TGI: 4.64 µM
NCI-H522 lung
  TGI: 12 µM
NCI/ADR-RES ovarian
  TGI: 1.34 µM
OVCAR-8 ovarian
  TGI: 7.51 µM
SF-268 CNS
  TGI: 16.4 µM
SF-295 CNS
  TGI: 11.8 µM
SF-539 CNS
  TGI: 7.41 µM
TK-10 renal
  TGI: 6.77 µM
UACC-257 melanoma
  TGI: 0.802 µM

## O=c1[nH]c2c(Nc3c4ccccc4nc4ccccc34)c([N+](=O)[O-])c(Nc3c4ccccc4nc4ccccc34)c([N+](=O)[O-])c2[nH]1
786-0 renal
  TGI: > 28.4 µM
CCRF-CEM leukemia
  TGI: 6.02 µM
NCI-H522 lung
  TGI: 2.82 µM
NCI/ADR-RES ovarian
  TGI: 2.24 µM
OVCAR-8 ovarian
  TGI: 12.6 µM
SF-268 CNS
  TGI: 6.74 µM
SF-295 CNS
  TGI: 12.8 µM
SF-539 CNS
  TGI: 18.6 µM
TK-10 renal
  TGI: > 22.5 µM
UACC-257 melanoma
  TGI: 10.4 µM

## O=C1Nc2noc(=O)nc2NO1
786-0 renal
  TGI: > 200 µM
CCRF-CEM leukemia
  TGI: > 200 µM
NCI-H522 lung
  TGI: > 200 µM
NCI/ADR-RES ovarian
  TGI: > 200 µM
OVCAR-8 ovarian
  TGI: > 200 µM
SF-268 CNS
  TGI: > 200 µM
SF-295 CNS
  TGI: > 200 µM
SF-539 CNS
  TGI: > 200 µM
TK-10 renal
  TGI: > 200 µM
UACC-257 melanoma
  TGI: > 200 µM

## Cc1nnc(SCc2nc(C#N)c(C#N)nc2CSc2nnc(C)s2)s1
786-0 renal
  TGI: 28.8 µM
NCI-H522 lung
  TGI: 9.22 µM
NCI/ADR-RES ovarian
  TGI: > 92.2 µM
OVCAR-8 ovarian
  TGI: > 100 µM
SF-268 CNS
  TGI: 35.4 µM
SF-295 CNS
  TGI: > 100 µM
SF-539 CNS
  TGI: 40.9 µM
TK-10 renal
  TGI: 16.3 µM
UACC-257 melanoma
  TGI: 28.3 µM

## Cc1cccc2c1nc1n2C(=O)c2ccccc2-1
786-0 renal
  TGI: > 100 µM
CCRF-CEM leukemia
  TGI: > 100 µM
NCI-H522 lung
  TGI: > 100 µM
NCI/ADR-RES ovarian
  TGI: > 100 µM
OVCAR-8 ovarian
  TGI: > 100 µM
SF-268 CNS
  TGI: > 100 µM
SF-295 CNS
  TGI: > 100 µM
SF-539 CNS
  TGI: > 100 µM
TK-10 renal
  TGI: > 100 µM
UACC-257 melanoma
  TGI: > 100 µM

## BrC1(c2ccccc2)C[n+]2c(-c3ccccc3)cc(-c3ccccc3)cc2-c2ccccc21 (stereo not drawn)
786-0 renal
  TGI: 13.4 µM
CCRF-CEM leukemia
  TGI: 21.2 µM
NCI-H522 lung
  TGI: 11.3 µM
NCI/ADR-RES ovarian
  TGI: 65.5 µM
OVCAR-8 ovarian
  TGI: 6.37 µM
SF-268 CNS
  TGI: 2.96 µM
SF-295 CNS
  TGI: 5.68 µM
SF-539 CNS
  TGI: 11.4 µM
TK-10 renal
  TGI: 20.6 µM
UACC-257 melanoma
  TGI: 2.55 µM

## OCCN1CCN(c2nc(N3CCCC3)c3nc(Cl)c(NCc4ccccc4)nc3n2)CC1
786-0 renal
  TGI: 4.23 µM
CCRF-CEM leukemia
  TGI: 11.7 µM
NCI-H522 lung
  TGI: 18.7 µM
NCI/ADR-RES ovarian
  TGI: 26.7 µM
OVCAR-8 ovarian
  TGI: 23.5 µM
SF-268 CNS
  TGI: 23.2 µM
SF-295 CNS
  TGI: 13.4 µM
SF-539 CNS
  TGI: 13.6 µM
TK-10 renal
  TGI: 19.2 µM
UACC-257 melanoma
  TGI: 9.79 µM

## COc1cc2c(cc1O)NC(=O)[C@@H]1C[C@@H](O)CN1C2=O
786-0 renal
  TGI: > 100 µM
CCRF-CEM leukemia
  TGI: > 100 µM
NCI-H522 lung
  TGI: > 100 µM
NCI/ADR-RES ovarian
  TGI: > 100 µM
OVCAR-8 ovarian
  TGI: > 100 µM
SF-268 CNS
  TGI: > 100 µM
SF-295 CNS
  TGI: > 100 µM
SF-539 CNS
  TGI: > 100 µM
TK-10 renal
  TGI: > 100 µM
UACC-257 melanoma
  TGI: > 100 µM

## CC(C)Oc1cccc(N2C(CCc3c[nH]c4ccc(Br)cc34)=NS(=O)(=O)c3cnccc32)c1
786-0 renal
  TGI: > 100 µM
CCRF-CEM leukemia
  TGI: > 100 µM
NCI-H522 lung
  TGI: > 100 µM
NCI/ADR-RES ovarian
  TGI: > 100 µM
OVCAR-8 ovarian
  TGI: > 100 µM
SF-268 CNS
  TGI: > 100 µM
SF-295 CNS
  TGI: > 100 µM
SF-539 CNS
  TGI: > 100 µM
TK-10 renal
  TGI: > 100 µM
UACC-257 melanoma
  TGI: > 100 µM

## O=C(O)CCCc1ccc2c(c1)C(C(=O)O)CC2 (stereo not drawn)
786-0 renal
  TGI: > 100 µM
CCRF-CEM leukemia
  TGI: > 100 µM
NCI-H522 lung
  TGI: > 100 µM
NCI/ADR-RES ovarian
  TGI: > 100 µM
OVCAR-8 ovarian
  TGI: > 100 µM
SF-268 CNS
  TGI: > 100 µM
SF-295 CNS
  TGI: > 100 µM
SF-539 CNS
  TGI: > 100 µM
TK-10 renal
  TGI: > 100 µM
UACC-257 melanoma
  TGI: > 100 µM

## COC1=C(OC)C(=O)C(Cc2c(Cl)nc3sccn23)=C(C)C1=O
786-0 renal
  TGI: 33.2 µM
CCRF-CEM leukemia
  TGI: 5.44 µM
NCI-H522 lung
  TGI: 20.2 µM
NCI/ADR-RES ovarian
  TGI: 20 µM
OVCAR-8 ovarian
  TGI: 26.2 µM
SF-268 CNS
  TGI: 30.4 µM
SF-295 CNS
  TGI: 25.4 µM
SF-539 CNS
  TGI: 25 µM
TK-10 renal
  TGI: 26.6 µM
UACC-257 melanoma
  TGI: 16.1 µM

## O=C1/C(=C\c2cccc(Oc3ccccc3)c2)SC(c2ccccc2)N1c1cc(Cl)ccc1Cl (stereo not drawn)
786-0 renal
  TGI: 76.5 µM
CCRF-CEM leukemia
  TGI: 3.62 µM
NCI-H522 lung
  TGI: 53 µM
NCI/ADR-RES ovarian
  TGI: > 100 µM
OVCAR-8 ovarian
  TGI: 57 µM
SF-268 CNS
  TGI: 58.6 µM
SF-295 CNS
  TGI: > 100 µM
SF-539 CNS
  TGI: 88.5 µM
TK-10 renal
  TGI: > 100 µM
UACC-257 melanoma
  TGI: > 100 µM

## COc1cc(C2c3cc4c(cc3[C@@H](Nc3ccc(F)cc3)C3COC[C@H]23)OCO4)cc(OC)c1O (stereo partly drawn)
786-0 renal
  TGI: 6.35 µM
CCRF-CEM leukemia
  TGI: 8.45 µM
NCI-H522 lung
  TGI: > 25 µM
NCI/ADR-RES ovarian
  TGI: > 25 µM
OVCAR-8 ovarian
  TGI: > 25 µM
SF-268 CNS
  TGI: > 25 µM
SF-295 CNS
  TGI: 5.32 µM
SF-539 CNS
  TGI: 3.49 µM
TK-10 renal
  TGI: > 25 µM
UACC-257 melanoma
  TGI: > 25 µM

## COC(=O)Nc1cc(OCCCOC(C)=O)c2[nH]c(C(=O)OC)cc2c1C[C@H](O)CO
786-0 renal
  TGI: > 100 µM
CCRF-CEM leukemia
  TGI: > 100 µM
NCI-H522 lung
  TGI: 26.9 µM
NCI/ADR-RES ovarian
  TGI: > 100 µM
OVCAR-8 ovarian
  TGI: > 100 µM
SF-295 CNS
  TGI: > 100 µM
SF-539 CNS
  TGI: > 100 µM
TK-10 renal
  TGI: > 100 µM
UACC-257 melanoma
  TGI: > 100 µM

## Cc1ccc(C(=O)Nc2ccc(CP(=O)(O)O)cc2CP(=O)(O)O)cc1N
786-0 renal
  TGI: > 100 µM
CCRF-CEM leukemia
  TGI: > 100 µM
NCI-H522 lung
  TGI: > 100 µM
NCI/ADR-RES ovarian
  TGI: > 100 µM
OVCAR-8 ovarian
  TGI: > 100 µM
SF-268 CNS
  TGI: > 100 µM
SF-295 CNS
  TGI: > 100 µM
SF-539 CNS
  TGI: > 100 µM
TK-10 renal
  TGI: > 100 µM
UACC-257 melanoma
  TGI: > 100 µM
